Results: US10376499B2, “Combination therapy for treatment of resistant bacterial infections” (priority 2014, dated 2019)
Values after ≈ are worked out from the molar mass of the structure shown.

Experiments:
Klebsiella pneumoniae = assay: MIC, recent Enterobacteriaceae clinical isolates: Klebsiella pneumoniae (Examples 7, 11)
A. baumannii [1] = assay: MIC by broth microdilution (CLSI), panel of 60 A. baumannii clinical isolates (Example 1); settings: Acinetobacter baumannii
A. baumannii [2] = assay: MIC90 of common antibiotics+compound 1, 196 contemporary clinical isolates of A. baumannii (Example 4); settings: B-lactam + Cmpd 1 (4 μg/mL)

CC1(C)[C@H](C(=O)O)N2C(=O)C[C@H]2S1(=O)=O [Sulbactam, (2S,5R)-3,3-dimethyl-7-oxo-4-thia-1-azabicyclo[3.2.0]heptane-2-carboxylic acid 4,4-dioxide] was tested, and the MIC (Klebsiella pneumoniae; Klebsiella pneumoniae ARC4467, SHV-33, TEM-1, OXA-1, DHA-1) was 64 µg/mL (≈ 274 µM), the MIC (Klebsiella pneumoniae; Klebsiella pneumoniae ARC4468, SHV-1) was 64 µg/mL (≈ 274 µM) and the MIC (Klebsiella pneumoniae; Klebsiella pneumoniae ARC4476, SHV-11, KPC-2, OXA-9[W117*]) was > 256 µg/mL. For the same compound, the MIC (Klebsiella pneumoniae; Klebsiella pneumoniae ARC4482, SHV-27[A122V], OXA-1) was 32 µg/mL (≈ 137 µM), the MIC (Klebsiella pneumoniae; Klebsiella pneumoniae ARC4486, SHV-11, DHA-1, OXA-1[E69K]) was 128 µg/mL (≈ 549 µM) and the MIC (Klebsiella pneumoniae; Klebsiella pneumoniae ARC4488, SHV-11, CTX-M15, OXA-1, TEM-1) was 64 µg/mL (≈ 274 µM). For the same compound, the MIC (Klebsiella pneumoniae; Klebsiella pneumoniae ARC4490, SHV-11, CTX-M15, KPC-2, OXA-1) was 256 µg/mL (≈ 1100 µM), the MIC50 (A. baumannii [1]) was 16 µg/mL (≈ 68.6 µM) and the MIC90 (A. baumannii [1]) was 32 µg/mL (≈ 137 µM). It also gave an MIC (A. baumannii [1]; strain ARC593, OXA-98) of 1 µg/mL (≈ 4.29 µM), an MIC (A. baumannii [1]; strain ARC2058, OXA-95) of 2 µg/mL (≈ 8.57 µM) and an MIC (A. baumannii [1]; strain ARC2461, OXA-66, TEM-1) of 16 µg/mL (≈ 68.6 µM). The MIC (A. baumannii [1]; strain ARC2462, TEM-1, OXA-66) was 16 µg/mL (≈ 68.6 µM), the MIC (A. baumannii [1]; strain ARC2598, OXA*, TEM-1, OXA-113) was 16 µg/mL (≈ 68.6 µM) and the MIC (A. baumannii [1]; strain ARC2635, OXA-65, OXA-40, TEM-1) was 32 µg/mL (≈ 137 µM). It also gave an MIC (A. baumannii [1]; strain ARC2636, OXA-65, OXA-40, TEM-1) of 32 µg/mL (≈ 137 µM), an MIC (A. baumannii [1]; strain ARC2675, SHV-5, OXA-113) of 16 µg/mL (≈ 68.6 µM) and an MIC (A. baumannii [1]; strain ARC2681, OXA-40, TEM-1, OXA-132) of 16 µg/mL (≈ 68.6 µM). For the same compound, the MIC (A. baumannii [1]; strain ARC2682, SHV-5, OXA-113) was 4 µg/mL (≈ 17.1 µM), the MIC (A. baumannii [1]; strain ARC2778, OXA-40, TEM-1, OXA-65) was 16 µg/mL (≈ 68.6 µM) and the MIC (A. baumannii [1]; strain ARC2779 (A. baumannii/calcoaceticus complex), OXA-2, VIM-2) was 16 µg/mL (≈ 68.6 µM). For the same compound, the MIC (A. baumannii [1]; strain ARC2780 (A. baumannii/calcoaceticus complex), OXA*, OXA-2, IMP-1) was 4 µg/mL (≈ 17.1 µM), the MIC (A. baumannii [1]; strain ARC2782, OXA-66, OXA-23, TEM-1, PER-1) was 32 µg/mL (≈ 137 µM) and the MIC (A. baumannii [1]; strain ARC3484, TEM-1, OXA-23, OXA-64) was 16 µg/mL (≈ 68.6 µM). It also gave an MIC (A. baumannii [1]; strain ARC3486, OXA-72, OXA-66, TEM-1) of 32 µg/mL (≈ 137 µM), an MIC (A. baumannii [1]; strain ARC3487, OXA-20, OXA-58, OXA-66) of 4 µg/mL (≈ 17.1 µM) and an MIC (A. baumannii [1]; strain ARC3488, OXA*, OXA-68) of 16 µg/mL (≈ 68.6 µM). The MIC (A. baumannii [1]; strain ARC3489, OXA*, OXA-68) was 2 µg/mL (≈ 8.57 µM), the MIC (A. baumannii [1]; strain ARC3490, TEM-1+, PSE-2, OXA-69) was 32 µg/mL (≈ 137 µM) and the MIC (A. baumannii [1]; strain ARC3491 (A. baumannii/calcoaceticus complex), OXA-215) was 0.5 µg/mL (≈ 2.14 µM). The MIC (A. baumannii [1]; strain ARC3492, OXA-40, OXA-132, TEM-1) was 16 µg/mL (≈ 68.6 µM), the MIC (A. baumannii [1]; strain ARC3493, OXA-40, OXA-66) was 64 µg/mL (≈ 274 µM) and the MIC (A. baumannii [1]; strain ARC3494, OXA-65) was 4 µg/mL (≈ 17.1 µM). The MIC (A. baumannii [1]; strain ARC3495, OXA-40, OXA-109) was 32 µg/mL (≈ 137 µM), the MIC (A. baumannii [1]; strain ARC3513, TEM-1, OXA-23, OXA-65) was 16 µg/mL (≈ 68.6 µM) and the MIC (A. baumannii [1]; strain ARC3657, OXA-130) was 32 µg/mL (≈ 137 µM). For the same compound, the MIC (A. baumannii [1]; strain ARC3658, OXA-66, PER-1, TEM-1, OXA-23) was 32 µg/mL (≈ 137 µM), the MIC (A. baumannii [1]; strain ARC3659, OXA-23, OXA*) was 4 µg/mL (≈ 17.1 µM) and the MIC (A. baumannii [1]; strain ARC3882, OXA-23, NDM-1, OXA-10*) was > 64 µg/mL. It also gave an MIC (A. baumannii [1]; strain ARC5073, OXA-23, TEM-1, OXA-64, PER-1) of 16 µg/mL (≈ 68.6 µM), an MIC (A. baumannii [1]; strain ARC5074, GES*, TEM-1, OXA-51) of 64 µg/mL (≈ 274 µM) and an MIC (A. baumannii [1]; strain ARC5075, SHV-5, OXA-113) of 16 µg/mL (≈ 68.6 µM). It also gave an MIC (A. baumannii [1]; strain ARC5076, TEM-1, OXA-23, OXA-66) of 32 µg/mL (≈ 137 µM), an MIC (A. baumannii [1]; strain ARC5077, OXA*, OXA-72) of 32 µg/mL (≈ 137 µM) and an MIC (A. baumannii [1]; strain ARC5079, OXA-72, OXA-65) of 32 µg/mL (≈ 137 µM). The MIC (A. baumannii [1]; strain ARC5080, OXA-71, OXA-40) was 32 µg/mL (≈ 137 µM), the MIC (A. baumannii [1]; strain ARC5082, OXA-66, OXA-23) was 64 µg/mL (≈ 274 µM) and the MIC (A. baumannii [1]; strain ARC5083, OXA-66, OXA-23) was 16 µg/mL (≈ 68.6 µM). The MIC (A. baumannii [1]; strain ARC5084, IMP-4(B), OXA-58, OXA-65) was 4 µg/mL (≈ 17.1 µM), the MIC (A. baumannii [1]; strain ARC5085, OXA*, TEM-1) was 32 µg/mL (≈ 137 µM) and the MIC (A. baumannii [1]; strain ARC5086, OXA*, TEM-1, OXA-72, OXA-66) was 32 µg/mL (≈ 137 µM). The MIC (A. baumannii [1]; strain ARC5087, OXA-66, OXA-23) was 32 µg/mL (≈ 137 µM), the MIC (A. baumannii [1]; strain ARC5088, OXA-20, OXA-58, OXA-66) was 16 µg/mL (≈ 68.6 µM) and the MIC (A. baumannii [1]; strain ARC5089, PER*, TEM-1, OXA-23, OXA-66) was 32 µg/mL (≈ 137 µM). The MIC90 (A. baumannii [2]) was 2 µg/mL.
